Assay results from US12365643B2, “Phenoxy carboxylic acid compounds and medical uses thereof” (QINGDAO RISING BIOTECHNOLOGY CO., LTD, priority 2018, dated 2025).

Legend:
[1] = system: antioxidant response element (ARE); assay: ARE luciferase reporter gene activity in HepG2 cells; format: cell-based, human; details: 50 μM, HepG2 stably transfected (FIG. 4)
Procedure: (§1) NF-κB was the most important inflammatory signal pathway. SW480 human colon cancer cells stably transfected with a luciferase reporter gene driven by NF-κB were used to determine the effects of the compound of the present application and the control drug gemfibrozil on NF-κB transcriptional activity, which comprised the following steps. • (1) Cells stably transfected with NF-κB Luc were cultivated to exponential growth, inoculated at a culture medium concentration of 1×10^5/[…] in a 24-well plate, and cultured for 24 hours, the medium was discarded, and the test compound or gemfibrozil formulated with serum-free medium at 50 μM were added to the 24-well plate and incubation was continued for 6 hours. After washing once with 200 μL of PBS, 100 μL of reporter gene cell lysis buffer was added, the cells were lysed on ice for 10 minutes, and the cell lysate was collected by pipetting. • (2) After centrifugation was performed at 8000 rpm and 4° C. for 10 min, the supernatant was pipetted for fluorescence assay. • (3) The measurement gap time of chemiluminescence analyzer was set to 2 s and the measurement time was set to 10 s. Automatic sample injection was adopted, 50 μL of luciferase assay reagent was added to each well. The reporter gene cell lysis buffer was used as a blank control. • (4) After centrifugation, the supernatant was taken, and the BCA method was used to determine the protein concentration so as to normalize the reporter gene results.
In this experimental example, the luciferase activity in HepG2 human liver cancer cells stably transfected with a luciferase reporter gene driven by antioxidant response element (ARE) was determined to evaluate the regulatory effects of the compound of the present application and gemfibrozil on the transcriptional activity of transcription factor Nrf2 and the cellular oxidative stress response signals, in which the operation process of the reporter gene assay was the same as that of Experimental Example 2.2.

ACOX1 = ACOX1 mRNA expression by real-time quantitative PCR in HepG2; format: cell-based, human; details: 1 μM, 6 hours, HepG2 (FIG. 5D)
Excerpt: (§2) Peroxisome proliferation factor activated receptor (PPAR) is an important nuclear receptor that regulates glycolipid metabolism, including three subtypes: α, β/δ and γ. Peroxisome proliferator-activated receptor γ coactivator 1α (PGC-1α) is its auxiliary transcriptional activator. Acyl-CoA oxidase 1 (ACOX1) is the first rate-limiting enzyme for fatty acid β oxidation. Fatty acid binding protein 1 (FABP1) is highly expressed in liver, and can bind fatty acid, heme and other molecules to reduce their toxicity and damage. Up-regulating the expression level of these genes helps to improve the body's metabolism, and their agonists are an important class of anti-metabolic drugs. After the compound of the present application (1 μM) and the control drug gemfibrozil (1 μM) were incubated with human liver cancer cells HepG2 for 6 hours, real-time fluorescent quantitative PCR method was used to determine the relative expression of mRNA of related genes in the cells.
(§3) The company which synthesized the primers was Suzhou Hongxun Biotechnology Co., Ltd. Tranzol reagent (Tranzol total RNA extraction reagent, TransGen Biotech) was used to extract total RNA from tissues. 5× All-In-One RT MasterMix reverse transcription kit (Abcam, USA) and real-time quantitative PCR Master Mix (Aidlab Biotechnologies Co., Ltd) were used. Bio-Rad CFX Connect™ Real-Time PCR Detection System for qPCR was used, and 2^−ΔΔCT method was used for data analysis. The expression level of mRNA in the normal control group was set to 1, and the relative expression level of mRNA in the administration group was calculated, so as to confirm whether the active compound affected the PPAR pathway, thereby further regulating lipid metabolism.

PGC1α = PGC1α mRNA expression by real-time quantitative PCR in HepG2; format: cell-based, human; details: 1 μM, 6 hours, HepG2 (FIG. 5C)
Excerpt: as §2, §3

[2] = system: diabetes mellitus+NASH model mice; assay: Diabetes mellitus + non-alcoholic steatohepatitis (NASH) model; format: in vivo, mouse; details: for AHDL (high density lipoprotein) / ALDL (low density lipoprotein) / ALT / AST / BUN / CHOL (total cholesterol) / CK / CREA / TGL (triglycerides) / activity of lowering triglycerides (in words) / total cholesterol content in blood (in words): 50 mg/kg intragastric once a day for 28 days; for blood glucose level: 50 mg/kg intragastric once a day for 28 days (FIG. 9); for body fat content (MRI): 50 mg/kg intragastric once a day for 28 days (FIG. 10); for weight ratio of epididymal white fat: 50 mg/kg intragastric once a day for 28 days (FIG. 11); for fat content in liver (Oil red O and H.E. staining): 50 mg/kg intragastric once a day for 28 days (FIGS. 12A-12B); for blood glucose level 14 days after the administration: 50 mg/kg intragastric once a day, day 14
Procedure: Animal model: Each db/db mouse was injected subcutaneously with 40% CCl4 solution (Beijing Tongguang Fine Chemical Co., Ltd.) at a dose of 0.72 mg/100 g for 4 consecutive weeks to obtain a diabetes mellitus+NASH model. In the experiment, 35 of the above model mice were used, and animals with blood glucose of about 7 to 13 mmol/L were selected. According to their blood glucose levels, they were randomly divided into a blank control group, a model group, a BJMU group (gemfibrozil), a BJMU-1 group, a BJMU-2 Group and a BJMU-3 group, 7 animals in each group (the model group and each administration group were modeled according to the animal modeling method). Intragastric administration was adopted with an administration volume of 10 ml/kg. The blank control group and the model group were administrated with 1% Tween 80-saline; the BJMU group was administrated with a dose of 50 mg/kg, the BJMU-1 group was administrated with a dose of 50 mg/kg, the BJMU-2 group was administrated with a dose of 50 mg/kg, and the BJMU-3 group was administrated with a dose of 50 mg/kg. The administration was performed once a day for 28 consecutive days. From the day of oral administration, the physiological changes of the animals were observed every day. Blood glucose was measured every week, and blood glucose difference (Δ) was calculated by the following formula: blood glucose difference (Δ)=the blood glucose of the day—the initial blood glucose (the initial blood glucose difference was zero). After the administration, the animals were sacrificed, and the internal organs and epididymal fat were taken out for experiments. White epididymal fat was taken from each group of mice and weighed. According to the corresponding body weight, the weight ratio of white fat was calculated. Before the mice were sacrificed, 3 mice in each group were randomly selected and subjected to magnetic resonance imaging (MRI) (EchoMRI-700 body fat tester) so as to measure body fat content. For mice in each experimental group, blood was collected and serum was separated, and liver was taken for wet-weight measurement after necropsy; liver tissue was taken and fixed for pathological examination, H.E. staining and oil red O staining (Wuhan Zishan Biotechnology Co., Ltd.) were performed, and mouse liver lesions were observed under light microscope; routine examination of blood was performed by Animal Laboratory Department, Health Science Center of Peking University to measure the following indexes: white blood cell count (WBC), red blood cell count (RBC), lymphocyte count (LY), platelet (PLT) and so on; biochemical laboratory examination of blood was performed by Laboratory Medicine, Third Hospital, Peking University to measure the following indexes: triglycerides (TG), total cholesterol (T-CHO), high-density lipoprotein cholesterol (HDL-C), low-density lipoprotein cholesterol (LDL-C) and so on.

NF-κB = NF-κB luciferase reporter gene transcriptional activity in SW480 cells; format: cell-based, human; details: 50 μM, 6 hours, SW480 stably transfected (FIG. 3)
Procedure: as §1

BUN [2] [mmol/L]	CK [2] [U/L]	CREA [2] [µmol/L]	SMILES	ARE reporter gene activity [1]	ACOX1 mRNA expression (ACOX1)	PGC1α mRNA expression (PGC1α)	AHDL (high density lipoprotein) [2] [mmol/L]	ALDL (low density lipoprotein) [2] [mmol/L]	ALT [2] [U/L]	AST [2] [U/L]	CHOL (total cholesterol) [2] [mmol/L]	TGL (triglycerides) [2] [mmol/L]	activity of lowering triglycerides (in words) [2]	blood glucose level [2]	body fat content (MRI) [2]	weight ratio of epididymal white fat [2]	fat content in liver (Oil red O and H.E. staining) [2]	blood glucose level 14 days after the administration [2]	activity of NF-κB reporter gene (NF-κB)	total cholesterol content in blood (in words) [2]
9.29 ± 3.44	1674.71 ± 864.05	21.33 ± 10.52	Cc1cc(OCCCC(C)(C)C(=O)O)c(C)cc1F [BJMU-3, 5-(4-fluoro-2,5-dimethylphenoxy)-2,2-dimethylpentanoic acid]	could significantly activate the ARE reporter gene activity	significantly induced ACOX1 mRNA expression	significantly induced PGC1α mRNA expression	2.27 ± 0.84	0.52 ± 0.14	125.14 ± 51.99	257 ± 83	4.42 ± 1.77	1.86 ± 0.99	had better activity of lowering triglycerides than gemfibrozil	could significantly reduce the blood glucose level	could significantly reduce the body fat content	could significantly reduce the weight ratio of mouse epididymal fat	could significantly reduce the fat content in liver	almost returned to the normal level		
11.95 ± 1.81	1406.33 ± 458.77	22.5 ± 7.12	Cc1cc(OCCCC(C)(C)C(=O)O)c(C)cc1Br [BJMU-2, 5-(4-bromo-2,5-dimethylphenoxy)-2,2-dimethylpentanoic acid]	could significantly activate the ARE reporter gene activity	significantly induced ACOX1 mRNA expression	significantly induced PGC1α mRNA expression	2.15 ± 0.29	0.48 ± 0.05	115.57 ± 39.12	233.67 ± 47.75	3.78 ± 0.45	1.73 ± 0.41	had better activity of lowering triglycerides than gemfibrozil	could significantly reduce the blood glucose level	could significantly reduce the body fat content	could significantly reduce the weight ratio of mouse epididymal fat	could significantly reduce the fat content in liver	almost returned to the normal level	could significantly inhibit the activity of NF-κB reporter gene	could reduce total cholesterol content in blood
11.96 ± 2.26	1222.14 ± 392.96	22.29 ± 3.45	Cc1ccc(C)c(OCCCC(C)(C)C(=O)O)c1 [gemfibrozil, Gemfibrozil, reference compound]	did not obviously activate the ARE	could not activate ACOX1 expression	could not activate PGC1α expression	2.68 ± 0.31	0.7 ± 0.16	134.14 ± 38.71	235.14 ± 41.06	5.37 ± 0.88	1.86 ± 0.66		did not exhibit significant hypoglycemic activity	did not show an activity of reducing body fat		did not exhibit the aforementioned activity		could not inhibit the activity of NF-κB reporter gene	did not show an activity of lowering total cholesterol in blood
9.89 ± 1.31	1297.71 ± 814.48	19 ± 1.63	Cc1cc(OCCCC(C)(C)C(=O)O)c(C)cc1Cl [BJMU-1, 5-(4-chloro-2,5-dimethylphenoxy)-2,2-dimethylpentanoic acid]	could significantly activate the ARE reporter gene activity	significantly induced ACOX1 mRNA expression	significantly induced PGC1α mRNA expression	2.34 ± 0.24	0.49 ± 0.06	114.86 ± 51.2	216.43 ± 60.6	4.85 ± 0.7	1.77 ± 0.65	had better activity of lowering triglycerides than gemfibrozil	could significantly reduce the blood glucose level	could significantly reduce the body fat content		could significantly reduce the fat content in liver	almost returned to the normal level	could significantly inhibit the activity of NF-κB reporter gene	
